# How the values were obtained:
# [1] = test system: superoxide radical formation; assay: Oxidative stress (superoxide radical formation, DHE) in 3NPA-induced model on SH-SY5Y; assay type: cell-based, human; conditions: 20 mM 3NPA = 100%, 24 hours
# Method: Similarly, to previous assay, cells grown on 96-multiwell plates at density 20000 cells per well underwent differentiation and treatment procedure with 3-nitropropionic acid (3NPA) in this model. After 24 hours of co-treatment with 20 mM 3NPA, superoxide radical's formation as a marker of oxidative stress was quantified by dihydroethidium according to Kim et al. (2017, J. Med. Food, 20, 140-151). Briefly, neuron-like SH-SY5Y cells were centrifuged at 500 g for 5 min and 30 s, then media were replaced by 10 μM DHE PBS solution and kept at room temperature for 30 min. After that, DHE was read at 500 nm/580 nm (excitation/emission) by Infinite M200 Pro (Tecan) microplate reader. DHE is cell permeable dye which is selective for superoxide radical detection. Overall oxidative stress achieved by 20 mM 3NPA was consider as 100% and thus the reduction in superoxide radical's formation (OS reducing effect) was determined. As shown in Table 6 and FIG. 2, 20 mM 3NPA induced 2.7-fold increase in superoxide radical's formation.
# glial A-172 cells [2] = assay: Cytotoxicity, Calcein AM viability assay on glial A-172 cells; assay type: cell-based, human; conditions: NAC at 1000 μM
# Method: The assay was performed in 96-well microplate with 7000 SH-SY5Y cells per well. After 48 h, old DMEM/F12 media was removed by fresh media containing tested compounds at 0.1, 1 and 10 μM concentrations for 24 h. Glial cell line A-172 purchased from ATCC and grown in same conditions as SH-SY5Y cell line. […] All tested compounds dissolved in DMSO were added into the medium. The maximum concentration of DMSO in media was kept below 0.1% (v/v). The cell viability was measured by Calcein AM (1 mg/ml ThermoFisher) viability assay. Solution of Calcein AM in PBS (0.75 μM) was pipetted to cells and incubated for 50 min. After that the fluorescence was measured at 488/517 nm (excitation/emission) using microplate reader Infinite M200 (TECAN). Calcein AM assay is based on the dye-intracellular-esterase cleavage of non-fluorescent dye (Calcein AM) by living cells to fluorescent dye (Calcein), while dying cells lose such ability.
# [3] = test system: human neuron-like SH-SY5Y cells; assay: 3NPA-induced model of Huntington's disease, neuron-like SH-SY5Y cells; assay type: cell-based; conditions: 10 μM (NAC), difference to 20 mM 3NPA, 48 h
# Method: (§1) Before application of toxin 3-nitropropionic acid (3NPA) for mimicking Huntington's disease, the 3NPA was dissolved in water and neutralized by sodium hydroxide. SH-SY5Y cells were seeded in the same density and differentiated by the procedure shown above. Astrocyte cells A-172 were also seeded as described in previous section. Both cell lines were co-treated by 3NPA (20 mM for SH-SY5Y cells, […]) and tested compounds at 0.1, 1 and 10 μM concentration for 48 h.
# glial A-172 cells [4] = assay: Cytotoxicity, Calcein AM viability assay on glial A-172 cells; assay type: cell-based, human; conditions: 48 hours
# caspase-3,7 activity = assay: Caspase-3,7 activity in salsolinol-induced model of PD on SH-SY5Y (Ac-DEVD-AMC); assay type: cell-based, human; conditions: Homo sapiens, SH-SY5Y, percentages of control (800 μM SAL = 100), 24 hour co-treatment, read-out: Caspase-3,7 activity (% of reduction)
# Method: Similarly, as shown in previous assay, cells grew on 96 multiwell plates at density 20000 cells per well underwent differentiation and treatment procedure for salsolinol model. After 24 hour co-treatment with salsolinol, caspase-3,7 (casp-3,7) activity as marker of apoptosis was quantified by its substrate Ac-DEVD-AMC according to Carrasco et al. (2003, BioTechniques, 34, 1064-1067). In this model, overall casp-3,7 activity induced by 800 μM SAL was consider as 100% and thus the reduction in casp-3,7 was observed after treatment with the protective terpenoid derivatives. As shown in Table 4 and FIG. 2, 800 μM SAL induced 2.9-fold increase.
# [5] = test system: SH-SY5Y human neuroblastoma cell line; assay: Cytotoxicity, Calcein AM viability assay on neuron-like SH-SY5Y cells; assay type: cell-based
# Method: The SH-SY5Y human neuroblastoma cell line obtained from ECACC (The European Collection of Authenticated Cell Cultures) was cultivated in Dulbecco's modified Eagle's Medium and Ham's F12 Nutrient Mixture (DMEM:F-12, 1:1), supplemented with 10% fetal bovine serum (FBS) and 1% penicillin and streptomycin at 37° C. in a humidified atmosphere 5% CO2, 95% humidity in passage limit up to ECACC+20. The assay was performed in 96-well microplate with 7000 SH-SY5Y cells per well. After 48 h, old DMEM/F12 media was removed by fresh media containing tested compounds at 0.1, 1 and 10 μM concentrations for 24 h. Glial cell line A-172 purchased from ATCC and grown in same conditions as SH-SY5Y cell line. A-172 cells were seeded in density 2000 cells per well and growing medium was replaced by treatment medium containing tested compounds in 0.1, 1 and 10 μM concentration; or in higher concentrations for R-LA or NAC positive controls for 48 hours. All tested compounds dissolved in DMSO were added into the medium. The maximum concentration of DMSO in media was kept below 0.1% (v/v). The cell viability was measured by Calcein AM (1 mg/ml ThermoFisher) viability assay. Solution of Calcein AM in PBS (0.75 μM) was pipetted to cells and incubated for 50 min. After that the fluorescence was measured at 488/517 nm (excitation/emission) using microplate reader Infinite M200 (TECAN). Calcein AM assay is based on the dye-intracellular-esterase cleavage of non-fluorescent dye (Calcein AM) by living cells to fluorescent dye (Calcein), while dying cells lose such ability. The values in Table 2 show the % of viability compared to control for all tested compounds. The results from DMSO control (medium with DMSO, <0.1% (v/v)) was postulated as 100% viability (see the first line of Table 2).
# [6] = test system: human neuroblastoma cell line SH-SY5Y; assay: Viability of differentiated SH-SY5Y in salsolinol-induced model of PD (Calcein AM); assay type: cell-based; conditions: difference between 800 μM SAL and co-treatment group means, 24 hours
# Method: Similarly, as in previous “Safety test”, the SH-SY5Y cells were seeded at density 7000 cells/well. After 48 h differentiation, old 1% DMEM/F12 media was replaced by fresh media containing 800 μM salsolinol (SAL) and tested compounds in 0.1, 1 and 10 μM concentrations. N-acetylcystein were chosen as positive control. After 24 hours, the cell viability was measured by Calcein AM viability assay. The values in Table 2 show % of viability of all tested compounds relative to control. The control (medium with DMSO, <0.1% (v/v)) was postulated as 100% viability (see the first line of the table), while the SAL exposure lead to decrease of viability to 65.4±0.97%.
# astrocyte A-172 cells = assay: 3NPA-induced model of Huntington's disease, astrocyte A-172 cells; assay type: cell-based, human; conditions: difference to 10 mM 3NPA, 48 h
# Method: as §1
# [7] = test system: human neuron-like SH-SY5Y cells; assay: 3NPA-induced model of Huntington's disease, neuron-like SH-SY5Y cells; assay type: cell-based; conditions: difference to 20 mM 3NPA, 48 h
compound,measurement,setting,value
"CC(=O)N[C@@H](CS)C(=O)O [NAC, N-acetyl cysteine, reference compound]",Superoxide radical formation (oxidative stress) %,[1]; 10 μM (NAC),79.6%
same,Superoxide radical formation (oxidative stress) %,[1]; 100 μM (NAC),79.7%
same,Superoxide radical formation (oxidative stress) %,[1]; 1000 μM (NAC),48.5%
same,"effect on viability of astrocytes, in words",glial A-172 cells [2],slight decrease in percentage of living cells
same,Neuro-protective effect (% of control),[3],N/A (N/A = no protection)
same,"viability, percentage of DMSO control",glial A-172 cells [4]; 10 μM (NAC),102.9%
same,"viability, percentage of DMSO control",glial A-172 cells [4]; 100 μM (NAC),96.6%
same,"viability, percentage of DMSO control",glial A-172 cells [4]; 1000 μM (NAC),83.0%
same,activity at 100 µM,"caspase-3,7 activity; 100 μM (NAC)",60.4%
same,activity at 1000 µM,"caspase-3,7 activity; 1000 μM (NAC)",55.2%
same,"viability, percentage of DMSO control",[5]; 10 μM (NAC),92.7%
same,"viability, percentage of DMSO control",[5]; 100 μM (NAC),97.5%
same,"viability, percentage of DMSO control",[5]; 1000 μM (NAC),101.5%
same,Neuroprotective effect (% of control),[6]; 10 μM (NAC),N/A (N/A = no protection)
same,Neuroprotective effect (% of control),[6]; 100 μM (NAC),N/A (N/A = no protection)
same,Neuroprotective effect (% of control),[6]; 1000 μM (NAC),16.15 % of control
same,Astro-protective effect (% of control),"astrocyte A-172 cells; A-172, column head 0.5 μM (positive controls)",N/A (N/A = no protection)
same,Astro-protective effect (% of control),"astrocyte A-172 cells; A-172, column head 5 μM (positive controls)",N/A (N/A = no protection)
same,Astro-protective effect (% of control),"astrocyte A-172 cells; A-172, column head 50 μM (positive controls)",N/A (N/A = no protection)
same,Neuro-protective effect (% of control),[7]; 100 μM (NAC),51.35 % of control
same,Neuro-protective effect (% of control),[7]; 1000 μM (NAC),65.72 % of control

# Reference: patent US12636299B2, “Terpenoid derivatives, pharmaceutical preparations containing these derivatives and their use in neuroprotection” (UNIVERZITA PALACKEHO V OLOMOUCI, priority 2020, dated 2026)
